Measurements: PMC9973015 (mBio, 2023)

Legend:
[1] = tested on: SARS-CoV-2 L50F E166A L167F; type: cell-based
[2] = target: SARS-CoV-2 3CLpro L50F E166A L167F (Severe acute respiratory syndrome coronavirus 2, UniProt P0DTD1, E3429A/L3313F/L3430F); type: biochemical
[3] = tested on: SARS-CoV-2 3CLpro L50F (USA-WA1 background); type: cell-based
[4] = tested on: SARS-CoV-2 3CLpro E166A L167F (USA-WA1 background); type: cell-based; conditions: for EC50: read-out: E166A L167V EC50
[5] = tested on: SARS-CoV-2 3CLpro L50F E166A L167F (USA-WA1 background); type: cell-based; conditions: read-out: L50F E166A L167V EC50
[6] = tested on: SARS-CoV-2 3CLpro E166V; conditions: cited from earlier work

Row | SMILES | EC50 [1] | low concentration that partially rescues impaired enzymatic activity of the mutants [2] | EC50 [3] | EC50 [4] | EC50 [5] | level of resistance conferred by E166V [6] | L50F FC, fold change of EC50 [3] | E166A L167V FC, fold change of EC50 [4]
1 | COc1cccc2[nH]c(C(=O)N[C@@H](CC(C)C)C(=O)N[C@@H](C[C@@H]3CCNC3=O)C(=O)CO)cc12 [PF-00835231] | 4.4 µM | around 0.05 μM | – | – | – | – | – | –
2 | CC(C)(C)[C@H](NC(=O)C(F)(F)F)C(=O)N1C[C@H]2[C@@H]([C@H]1C(=O)N[C@H](C#N)C[C@@H]1CCNC1=O)C2(C)C [Nirmatrelvir, nirmatrelvir] | 6.1 µM | – | 160 nM | 1100 nM | 3.2 µM | 100 | – | –
3 | COc1cccc2[nH]c(C(=O)N3C[C@@H]4CCC[C@@H]4[C@H]3C(=O)N[C@@H](C[C@@H]3CCCNC3=O)C(=O)CO)cc12 [ALG-097161, (1S,3aR,6aS)-N-((S)-4-Hydroxy-3-oxo-1-((S)-2-oxopiperidin-3-yl)butan-2-yl)-2-(4-methoxy-1H-indole-2-carbonyl)octahydrocyclopenta[c]pyrrole-1-carboxamide] | – | […] | 980 nM | 2900 nM | […] | – | – | –
4 | Cn1cnc(Cn2c(=O)[nH]/c(=N\c3cc4cn(C)nc4cc3Cl)n(Cc3cc(F)c(F)cc3F)c2=O)n1 [Ensitrelvir, ensitrelvir] | – | – | 240 nM | 8000 nM | 9.3 µM | 23 | 0.24 [1.1] (0.18–0.31) | 8.0 [38] (2.8–12.7) (n = 4)
